These results are taken from patent US10590128B2, “6,7,8,9-tetrahydro-5H-pyrido[2,3-d]azepine dopamine D3 ligands” (Pfizer Inc., priority 2016, dated 2020).

As a reminder, the Ki is the equilibrium dissociation constant of an inhibitor or competing ligand from its target.

Each structure is given as a SMILES string.

Experiment [1] concerns the target human dopamine D2 receptor (hD2R) (Homo sapiens, UniProt P14416). The experiment in a line: Human D2 receptor binding assay ([^3H]-Spiperone). The settings on record: CHO cells expressing hD2R, geometric mean of 2-5 determinations unless marked b (single determination).
Experiment [2] concerns the target human dopamine D3 receptor (hD3R) (Homo sapiens, UniProt P35462). The experiment in a line: Human D3 receptor binding assay ([^3H]-7-OH-DPAT). The settings on record: CHO cells expressing hD3R, geometric mean of 2-5 determinations unless marked b (single determination), read-out: hD3 in CHO cells Ki.

Chain of human dopamine D2 receptor (hD2R) (P14416 whole entry): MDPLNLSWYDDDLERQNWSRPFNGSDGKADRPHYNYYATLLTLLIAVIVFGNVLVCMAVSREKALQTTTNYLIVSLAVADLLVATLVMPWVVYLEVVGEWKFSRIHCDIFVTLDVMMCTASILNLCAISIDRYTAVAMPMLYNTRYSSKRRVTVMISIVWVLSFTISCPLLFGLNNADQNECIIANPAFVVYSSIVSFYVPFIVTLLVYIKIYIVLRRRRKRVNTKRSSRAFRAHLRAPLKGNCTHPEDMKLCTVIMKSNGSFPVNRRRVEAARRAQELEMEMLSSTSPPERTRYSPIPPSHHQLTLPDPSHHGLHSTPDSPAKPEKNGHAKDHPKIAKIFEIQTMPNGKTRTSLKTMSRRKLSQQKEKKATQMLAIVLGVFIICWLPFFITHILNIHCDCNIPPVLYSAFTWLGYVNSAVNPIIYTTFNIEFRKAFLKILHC
Chain of human dopamine D3 receptor (hD3R) (P35462 whole entry): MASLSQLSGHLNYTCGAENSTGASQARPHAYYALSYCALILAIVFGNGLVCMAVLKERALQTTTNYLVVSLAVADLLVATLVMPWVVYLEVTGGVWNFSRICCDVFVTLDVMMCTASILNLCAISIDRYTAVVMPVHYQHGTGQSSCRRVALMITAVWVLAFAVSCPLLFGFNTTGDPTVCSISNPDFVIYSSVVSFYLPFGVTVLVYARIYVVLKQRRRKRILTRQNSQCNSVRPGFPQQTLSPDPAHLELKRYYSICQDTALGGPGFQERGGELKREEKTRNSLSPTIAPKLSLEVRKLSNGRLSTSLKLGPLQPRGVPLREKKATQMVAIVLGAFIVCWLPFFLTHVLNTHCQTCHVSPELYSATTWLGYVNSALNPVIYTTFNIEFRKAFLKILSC

For `COc1nc2c(cc1NS(=O)(=O)c1cnc(C3CCC3)c(F)c1)CCN(C)CC2` [Example 24, 6-cyclobutyl-5-fluoro-N-(2-methoxy-7-methyl-6,7,8,9-tetrahydro-5H-pyrido[2,3-d]azepin-3-yl)pyridine-3-sulfonamide], the Ki amounted to 232 nM in experiment [1] and 4.2 nM in experiment [2].

`CCN1CCc2cc(NS(=O)(=O)c3ccc4c(c3)CCC(C)(C)O4)c(OC)nc2CC1` [Example 64, N-(7-ethyl-2-methoxy-6,7,8,9-tetrahydro-5H-pyrido[2,3-d]azepin-3-yl)-2,2-dimethyl-3,4-dihydro-2H-chromene-6-sulfonamide]: the Ki in experiment [1] worked out at 21.2 nM; in experiment [2], 0.48 nM.

As for `CCO[C@H]1C[C@H](c2ccc(S(=O)(=O)Nc3cc4c(nc3OC)CCN(C)CC4)cc2)C1` [Example 22, 4-(trans-3-ethoxycyclobutyl)-N-(2-methoxy-7-methyl-6,7,8,9-tetrahydro-5H-pyrido[2,3-d]azepin-3-yl)benzenesulfonamide], the Ki turned out to be 30.3 nM in experiment [1] and 2.64 nM in experiment [2].

Consider `COc1nc2c(cc1NS(=O)(=O)c1ccc([C@H]3CC[C@H](OC)CC3)cc1)CCN(C)CC2` [Example 38, 4-(trans-4-methoxycyclohexyl)-N-(2-methoxy-7-methyl-6,7,8,9-tetrahydro-5H-pyrido[2,3-d]azepin-3-yl)benzenesulfonamide], for which the Ki in experiment [1] is 339 nM; in experiment [2] it was 2.93 nM.

For the compound `CCN1CCc2nc(OC)c(NS(=O)(=O)c3ccc(C(C)C)cc3)cc2C(C)C1` (centres unmarked) [Example 56, N-(7-ethyl-2-methoxy-5-methyl-6,7,8,9-tetrahydro-5H-pyrido[2,3-d]azepin-3-yl)-4-(propan-2-yl)benzenesulfonamide], the results for the Ki in experiment [1] and in experiment [2] were 162 nM and 2.12 nM, respectively.

Turning to `CCN1CCc2cc(NS(=O)(=O)c3ccc([C@H]4C[C@H](OC)C4)cc3)c(OC)nc2CC1` [Example 68, N-(7-ethyl-2-methoxy-6,7,8,9-tetrahydro-5H-pyrido[2,3-d]azepin-3-yl)-4-(trans-3-methoxycyclobutyl)benzenesulfonamide], the Ki is 338 nM in experiment [1] and 1.26 nM in experiment [2].

In the case of `COc1nc2c(cc1NS(=O)(=O)c1ccc([C@]3(F)C[C@H](OCCF)C3)cc1)CCN(C)CC2` [Example 133, 4-[trans-1-fluoro-3-(2-fluoroethoxy)cyclobutyl]-N-(2-methoxy-7-methyl-6,7,8,9-tetrahydro-5H-pyrido[2,3-d]azepin-3-yl)benzenesulfonamide], the Ki in experiment [1] was 428 nM; in experiment [2], 2.47 nM.

In the case of `CCN1CCc2cc(NS(=O)(=O)c3ccc(C4CCCCO4)cc3)c(OC)nc2CC1` (single isomer, unassigned) [Example 73], the figures for the Ki in experiment [1] and in experiment [2] were 1040 nM and 4.41 nM, respectively.

As for `CCN1CCc2cc(NS(=O)(=O)c3ccc([C@H]4C[C@@H](OC)C4)cc3)c(OC)nc2CC1` [Example 72, N-(7-ethyl-2-methoxy-6,7,8,9-tetrahydro-5H-pyrido[2,3-d]azepin-3-yl)-4-(cis-3-methoxycyclobutyl)benzenesulfonamide], the results for the Ki in experiment [1] and in experiment [2] were 420 nM and 2.65 nM, respectively.

Regarding `COc1nc2c(cc1NS(=O)(=O)c1ccc(C3CCCCC3)cc1)CCN(C)CC2` [Example 45, 4-cyclohexyl-N-(2-methoxy-7-methyl-6,7,8,9-tetrahydro-5H-pyrido[2,3-d]azepin-3-yl)benzenesulfonamide], the Ki came out at 3.2 nM in experiment [1] and 0.32 nM in experiment [2].

Take `CCOc1ccc(S(=O)(=O)Nc2cc3c(nc2OC)CCN(CCOC)CC3)cc1` [Example 29, 4-ethoxy-N-[2-methoxy-7-(2-methoxyethyl)-6,7,8,9-tetrahydro-5H-pyrido[2,3-d]azepin-3-yl]benzenesulfonamide]: the inhibitory constant (Ki) in experiment [1] amounted to 1070 nM; in experiment [2], 11.1 nM.

For the compound `COc1nc2c(cc1NS(=O)(=O)c1ccc([C@H]3CCCCO3)cc1)CCNCC2` [Example 9, N-(2-Methoxy-6,7,8,9-tetrahydro-5H-pyrido[2,3-d]azepin-3-yl)-4-[(2R)-tetrahydro-2H-pyran-2-yl]benzenesulfonamide], the Ki in experiment [1] was 1270 nM; in experiment [2], 7.68 nM.

Take `COc1nc2c(cc1NS(=O)(=O)c1ccc([C@]3(F)C[C@H](OC)C3)cc1)CCN(C)CC2` [Example 10, 4-(trans-1-Fluoro-3-methoxycyclobutyl)-N-(2-methoxy-7-methyl-6,7,8,9-tetrahydro-5H-pyrido[2,3-d]azepin-3-yl)benzenesulfonamide]: the Ki in experiment [1] is 99 nM; in experiment [2], 1.16 nM.

As to `CCN1CCc2cc(NS(=O)(=O)c3ccc(C)cc3)c(OC)nc2CC1` [Example 53, N-(7-ethyl-2-methoxy-6,7,8,9-tetrahydro-5H-pyrido[2,3-d]azepin-3-yl)-4-methylbenzenesulfonamide], the Ki in experiment [1] stood at 313 nM; in experiment [2] it was 2.75 nM.

As for `CCO[C@H]1C[C@@H](c2ccc(S(=O)(=O)Nc3cc4c(nc3OC)CCN(C)CC4)cn2)C1` [Example 135, 6-(cis-3-ethoxycyclobutyl)-N-(2-methoxy-7-methyl-6,7,8,9-tetrahydro-5H-pyrido[2,3-d]azepin-3-yl)pyridine-3-sulfonamide], the Ki in experiment [1] is more than 3140 nM; in experiment [2], 23.6 nM.

Consider `COc1nc2c(cc1NS(=O)(=O)c1ccc(C3(OC)CCCC3)cc1)CCN(C)CC2` [Example 95, 4-(1-methoxycyclopentyl)-N-(2-methoxy-7-methyl-6,7,8,9-tetrahydro-5H-pyrido[2,3-d]azepin-3-yl)benzenesulfonamide], for which the Ki in experiment [1] worked out at 45.3 nM; in experiment [2], 0.6 nM.

Turning to `COc1nc2c(cc1NS(=O)(=O)c1ccc(C3CC(F)(F)CCO3)cc1)CCN(C)CC2` (single isomer, unassigned) [Example 41], the Ki in experiment [1] came to 177 nM; in experiment [2] it was 2.31 nM.

On to `CCN1CCc2cc(NS(=O)(=O)c3cnc(OC4CCCC4)c(C)c3)c(OC)nc2CC1` [Example 125, 6-(cyclopentyloxy)-N-(7-ethyl-2-methoxy-6,7,8,9-tetrahydro-5H-pyrido[2,3-d]azepin-3-yl)-5-methylpyridine-3-sulfonamide], for which the Ki in experiment [1] came out at 4.05 nM; in experiment [2], 1.46 nM.

For the compound `CCN1CCc2cc(NS(=O)(=O)c3ccc([C@]4(F)C[C@H](OC)C4)cc3)c(OC)nc2CC1` [Example 96, N-(7-ethyl-2-methoxy-6,7,8,9-tetrahydro-5H-pyrido[2,3-d]azepin-3-yl)-4-(trans-1-fluoro-3-methoxycyclobutyl)benzenesulfonamide], the values for the Ki in experiment [1] and in experiment [2] were 317 nM and 2.79 nM, respectively.

Consider `CCOc1ccc(S(=O)(=O)Nc2cc3c(nc2OC)CCN(C)CC3)cc1` [Example 28, 4-ethoxy-N-(2-methoxy-7-methyl-6,7,8,9-tetrahydro-5H-pyrido[2,3-d]azepin-3-yl)benzenesulfonamide], for which the Ki is 124 nM in experiment [1] and 2.33 nM in experiment [2].

Regarding `CCN1CCc2cc(NS(=O)(=O)c3ccc(C4CCCCO4)cc3)c(OC)nc2CC1` (single isomer, unassigned) [Example 74], the Ki was 202 nM in experiment [1] and 2.58 nM in experiment [2].

For the compound `COc1nc2c(cc1NS(=O)(=O)c1cnc(OC3CCCC3)nc1)CCN(C)CC2` [Example 18, 2-(cyclopentyloxy)-N-(2-methoxy-7-methyl-6,7,8,9-tetrahydro-5H-pyrido[2,3-d]azepin-3-yl)pyrimidine-5-sulfonamide], the inhibition constant Ki in experiment [1] came out at 142 nM; in experiment [2] it was 3.58 nM.
